Consider 19 molecules from patent US8779142B2, “Azabicyclo compound and salt thereof” (Taiho Pharmaceutical Co., Ltd., priority 2009, dated 2014).

Molecules are shown by their SMILES.

The subject of assay [1] is SK-BR-3 cells. In words: Measurement of cell growth inhibition (crystal violet staining method). The format is cell-based. The settings on record: Homo sapiens; breast cancer SK-BR-3 cells, 72 hr culture with test substance.
Assay [2] addresses human HSP90 alpha protein (HSP90 N-terminal protein, amino acids 2-236) (Homo sapiens (Human), UniProt P07900). In words: Measurement of HSP90-binding activity (AlphaScreen competitive assay, biotin-labeled geldanamycin). Particulars: concentration inhibiting binding of biotin-labeled geldanamycin (40 nM) to purified HSP90 to 50% of control; read-out: HSP-binding activity IC50.

For `CCc1cc(C(N)=O)ccc1-n1nc(C(C)C)c2c(-n3cnc(-c4cnn(C)c4)c3)ccnc21` [Example 102, 3-Ethyl-4-{3-isopropyl-4-(4-(1-methyl-1H-pyrazol-4-yl)-1H-imidazol-1-yl)-1H-pyrazolo[3,4-b]pyridin-1-yl}benzamide], the IC50 in assay [1] is 170 nM; in assay [2], 210 nM.
Turning to `CCCc1cc(C(N)=O)ccc1-n1nc(C(C)C)c2c(-n3cnc(-c4cnn(C)c4)c3)ccnc21` [Example 103, 4-{3-Isopropyl-4-(4-(1-methyl-1H-pyrazol-4-yl)-1H-imidazol-1-yl)-1H-pyrazolo[3,4-b]pyridin-1-yl}-3-propylbenzamide], the IC50 is 170 nM in assay [1] and 120 nM in assay [2].
The corresponding values for `CC(C)c1cc(C(N)=O)ccc1-n1nc(C(C)C)c2c(-n3cnc(-c4cnn(C)c4)c3)ccnc21` [Example 104, 3-Isopropyl-4-{3-isopropyl-4-(4-(1-methyl-1H-pyrazol-4-yl)-1H-imidazol-1-yl)-1H-pyrazolo[3,4-b]pyridin-1-yl}benzamide] are 200 nM and 120 nM.
For the molecule `CC(C)c1nn(-c2ccc(C(N)=O)cc2C2CC2)c2nccc(-n3cnc(-c4cnn(C)c4)c3)c12` [Example 105, 3-Cyclopropyl-4-{3-isopropyl-4-(4-(1-methyl-1H-pyrazol-4-yl)-1H-imidazol-1-yl)-1H-pyrazolo[3,4-b]pyridin-1-yl}benzamide], the IC50 in assay [1] was 250 nM; in assay [2], 140 nM.
Turning to `CC(C)c1nn(-c2ccc(C(N)=O)c(N)c2)c2nccc(-n3cnc(-c4cnn(C)c4)c3)c12` [Example 106, 2-Amino-4-{3-isopropyl-4-(4-(1-methyl-1H-pyrazol-4-yl)-1H-imidazol-1-yl)-1H-pyrazolo[3,4-b]pyridin-1-yl}benzamide], the IC50 worked out at 650 nM in assay [1] and 340 nM in assay [2].
The corresponding values for `CC(C)c1nn(-c2ccc(C(N)=O)cc2N)c2nccc(-n3cnc(-c4cnn(C)c4)c3)c12` [Example 107, 3-Amino-4-{3-isopropyl-4-(4-(1-methyl-1H-pyrazol-4-yl)-1H-imidazol-1-yl)-1H-pyrazolo[3,4-b]pyridin-1-yl}benzamide] are 900 nM and 200 nM.
The corresponding values for `CCNc1cc(-n2nc(C(C)C)c3c(-n4cnc(-c5cnn(C)c5)c4)ccnc32)ccc1C(N)=O` [Example 109, 2-(Ethylamino)-4-{3-isopropyl-4-(4-(1-methyl-1H-pyrazol-4-yl)-1H-imidazol-1-yl)-1H-pyrazolo[3,4-b]pyridin-1-yl}benzamide] are 80 nM and 180 nM.
For `CNc1cc(-n2nc(C(C)C)c3c(-n4cnc(-c5cnn(C)c5)c4)ccnc32)ccc1C(N)=O` [Example 110, 4-{3-Isopropyl-4-(4-(1-methyl-1H-pyrazol-4-yl)-1H-imidazol-1-yl)-1H-pyrazolo[3,4-b]pyridin-1-yl}-2-(methylamino)benzamide], the IC50 turned out to be 490 nM in assay [1] and 310 nM in assay [2].
In the same order, the values of `CC(C)Nc1cc(-n2nc(C(C)C)c3c(-n4cnc(-c5cnn(C)c5)c4)ccnc32)ccc1C(N)=O` [Example 111, 4-{3-Isopropyl-4-(4-(1-methyl-1H-pyrazol-4-yl)-1H-imidazol-1-yl)-1H-pyrazolo[3,4-b]pyridin-1-yl}-2-(isopropylamino)benzamide] are 80 nM and 190 nM.
The corresponding values for `CC(C)c1nn(-c2ccc(C(N)=O)c(NC(C)(C)C)c2)c2nccc(-n3cnc(-c4cnn(C)c4)c3)c12` [Example 112, 2-(Tert-butylamino)-4-{3-isopropyl-4-(4-(1-methyl-1H-pyrazol-4-yl)-1H-imidazol-1-yl)-1H-pyrazolo[3,4-b]pyridin-1-yl}benzamide] are 40 nM and 250 nM.
In the same order, the values of `CC(C)c1nn(-c2ccc(C(N)=O)c(NCC(F)F)c2)c2nccc(-n3cnc(-c4cnn(C)c4)c3)c12` [Example 113, 2-(2,2-Difluoroethylamino)-4-{3-isopropyl-4-(4-(1-methyl-1H-pyrazol-4-yl)-1H-imidazol-1-yl)-1H-pyrazolo[3,4-b]pyridin-1-yl}benzamide] are 70 nM and 260 nM.
As to `CC(C)c1nn(-c2ccc(C(N)=O)c(NCC(F)(F)F)c2)c2nccc(-n3cnc(-c4cnn(C)c4)c3)c12` [Example 114, 4-{3-Isopropyl-4-(4-(1-methyl-1H-pyrazol-4-yl)-1H-imidazol-1-yl)-1H-pyrazolo[3,4-b]pyridin-1-yl}-2-(2,2,2-trifluoroethylamino)benzamide], the IC50 turned out to be 180 nM in assay [1] and 490 nM in assay [2].
With `CC(C)c1nn(-c2ccc(C(N)=O)c(NCCN3CCCC3)c2)c2nccc(-n3cnc(-c4cnn(C)c4)c3)c12` [Example 115, 4-{3-Isopropyl-4-(4-(1-methyl-1H-pyrazol-4-yl)-1H-imidazol-1-yl)-1H-pyrazolo[3,4-b]pyridin-1-yl}-2-{2-(pyrrolidin-1-yl)ethylamino}benzamide], the results for the IC50 in assay [1] and in assay [2] were 240 nM and 160 nM, respectively.
In the same order, the values of `Cc1cc(C(N)=O)ncc1-n1nc(C(C)C)c2c(-n3cnc(-c4cnn(C)c4)c3)ccnc21` [Example 118, 5-{3-Isopropyl-4-(4-(1-methyl-1H-pyrazol-4-yl)-1H-imidazol-1-yl)-1H-pyrazolo[3,4-b]pyridin-1-yl}-4-methylpicolinamide] are 550 nM and 210 nM.
For the molecule `CC(C)Nc1cc(C(N)=O)ccc1-n1nc(C(C)C)c2c(-n3cnc(-c4cnn(C)c4)c3)ccnc21` [Example 120, 4-{3-Isopropyl-4-(4-(1-methyl-1H-pyrazol-4-yl)-1H-imidazol-1-yl)-1H-pyrazolo[3,4-b]pyridin-1-yl}-3-(isopropylamino)benzamide], the IC50 in assay [1] is 140 nM; in assay [2], 200 nM.
In the same order, the values of `CCNc1cc(C(N)=O)ccc1-n1nc(C(C)C)c2c(-n3cnc(-c4cnn(C)c4)c3)ccnc21` [Example 121, 3-(Ethylamino)-4-{3-isopropyl-4-(4-(1-methyl-1H-pyrazol-4-yl)-1H-imidazol-1-yl)-1H-pyrazolo[3,4-b]pyridin-1-yl}benzamide] are 160 nM and 180 nM.
Regarding `CCCNc1cc(C(N)=O)ccc1-n1nc(C(C)C)c2c(-n3cnc(-c4cnn(C)c4)c3)ccnc21` [Example 122, 4-{3-Isopropyl-4-(4-(1-methyl-1H-pyrazol-4-yl)-1H-imidazol-1-yl)-1H-pyrazolo[3,4-b]pyridin-1-yl}-3-(propylamino)benzamide], the IC50 is 130 nM in assay [1] and 180 nM in assay [2].
As for `CC(C)c1nn(-c2ccc(C(N)=O)cc2NCC(F)F)c2nccc(-n3cnc(-c4cnn(C)c4)c3)c12` [Example 123, 3-(2,2-Difluoroethylamino)4-{3-isopropyl-4-(4-(1-methyl-1H-pyrazol-4-yl)-1H-imidazol-1-yl)-1H-pyrazolo[3,4-b]pyridin-1-yl}benzamide], the half-inhibitory concentration (IC50) was 120 nM in assay [1] and 190 nM in assay [2].
`CC(C)c1nn(-c2ccc(C(N)=O)cc2C#N)c2nccc(-n3cnc(-c4cnn(C)c4)c3)c12` [Example 124, 3-Cyano-4-{3-isopropyl-4-(4-(1-methyl-1H-pyrazol-4-yl)-1H-imidazol-1-yl)-1H-pyrazolo[3,4-b]pyridin-1-yl}benzamide]: the IC50 in assay [1] stood at 590 nM; in assay [2] it was 350 nM.
